Assay results taken from PubChem BioAssay (NCI).
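96-well plates; 48 h exposure; 5 concentrations. Endpoints by linear interpolation between flanking doses. Not reached: highest tested concentration assigned. GI50 is the concentration that inhibits growth by half. TGI denotes the concentration required for complete inhibition of growth.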

Tests used:
Assay in all cases: inhibition of tumour cell growth, NCI panel, 48 h
[1] = system: BT-549 breast
[2] = system: CAKI-1 renal
[3] = system: EKVX NSCLC
[4] = system: NCI-H460 lung
[5] = system: OVCAR-8 ovarian
[6] = system: RPMI-8226 leukemia
[7] = system: SF-268 CNS
[8] = system: SK-MEL-2 melanoma
[9] = system: SNB-75 CNS
[10] = system: MDA-N

Row | Structure (SMILES) | TGI [1] [µM] | TGI [2] [µM] | TGI [3] [µM] | TGI [4] [µM] | TGI [5] [µM] | TGI [6] [µM] | TGI [7] [µM] | TGI [8] [µM] | TGI [9] [µM] | TGI [10] [µM] | GI50 [2] [µM] | GI50 [3] [µM] | GI50 [4] [µM] | GI50 [5] [µM] | GI50 [6] [µM] | GI50 [8] [µM] | GI50 [9] [µM]
1 | COc1ccccc1NC(=O)CC(=O)N1N=C(N2c3ccccc3Sc3ccccc32)CC1c1ccccc1 (stereo not drawn) | > 100 | > 100 | > 100 | > 100 | > 100 | > 100 | > 100 | > 100 | > 100 |  |  |  |  |  |  |  | 
2 | CC(=O)Oc1c2c(c3n(c1=O)CCCC3)C(=O)N(c1ccccc1)C2=O | > 100 | > 100 | > 100 | > 100 | > 100 |  | > 100 | > 100 | > 100 | > 100 |  |  |  |  |  |  | 
3 | COc1ccc(C2C(C#N)=C(S)N(C3OC(COC(C)=O)C(OC(C)=O)C(OC(C)=O)C3OC(C)=O)C(c3ccccc3)=C2C(C)=O)cc1 (stereo not drawn) | > 100 | > 100 |  | > 100 | > 100 | > 100 | > 100 | > 100 | > 100 | > 100 |  |  |  |  |  |  | 
4 | O=C(c1ccccc1)C1S(=O)(=O)OCCOS1(=O)=O |  | > 100 | > 100 |  | > 100 | > 100 | > 100 | > 100 | > 100 |  |  |  |  |  |  |  | 
5 | O=C1CC(c2ccccc2)=Nc2ccccc2N1 |  | > 100 | > 100 | > 100 | > 100 |  | > 100 | > 100 | > 100 |  |  |  |  |  |  |  | 
6 | Cc1n[nH]c(=O)n1/N=C\c1ccccc1 | > 100 | > 100 | > 100 | > 100 | > 100 | > 100 | > 100 | > 100 |  | > 100 |  |  |  |  |  |  | 
7 | O=C1/C=C(/c2ccc(O)cc2)[C@@H](O)Cc2ccc(O)cc2O1 |  | > 100 | > 100 | > 100 | > 100 |  | > 100 | > 100 |  |  |  |  |  |  |  |  | 
8 | O=c1ccn(C2OC(CO)C(O)C2F)c(=O)n1Cc1ccccc1 (stereo not drawn) |  | > 100 | > 100 |  | > 100 | > 100 | > 100 |  | > 100 | > 100 |  |  |  |  |  |  | 
9 | CCOC(=O)/C(=C/c1ccc(C(=O)OC)cc1)N(CC)CC |  | > 100 | > 100 |  | > 100 | > 100 | > 100 | > 100 |  |  |  |  |  |  |  |  | 
10 | NC(CSSCC(N)=NCC12CC3CC(CC(C3)C1)C2)=NCC12CC3CC(CC(C3)C1)C2 |  | 36.4 |  | > 100 | 51.4 | 6.17 | > 100 | 55.1 | 45.2 |  |  |  |  |  |  |  | 
11 | CCOC(=O)c1nc2ccc(C(F)(F)F)cc2nc1Nc1ccc(Cl)c(Cl)c1 | > 100 | > 100 | > 100 | > 100 | > 100 | > 100 | > 100 |  | > 100 | > 100 |  |  |  |  |  |  | 
12 | Cc1c(N=Nc2ccccc2)c(C)n(C2OC(CO)C(O)C(O)C2O)c(=S)c1C#N (stereo not drawn) | 45.8 | > 100 |  | > 100 |  | > 100 | > 100 | 90.2 | > 100 | > 100 |  |  |  |  |  |  | 
13 | COc1c2c(c3ccccc3c1O)C1C=CC2C1 (stereo not drawn) |  | 30.8 | 33 | 34 | 28.7 | > 100 | 33.7 | 31.5 |  |  |  |  |  |  |  |  | 
14 | O=C(O)c1ccc(C2=Cc3cc(Cl)ccc3OC2)cc1 |  | > 100 | > 100 | > 100 | > 100 | > 100 | > 100 | > 100 | > 100 |  |  |  |  |  |  |  | 
15 | CCN(CC)CCN1C(=O)c2c(c3c4ccccc4[nH]c3c3ccc4ccccc4c23)C1=O |  | 2.87 | 3.32 | 2.44 | 4.74 | 5.65 |  | 6.5 | 2.4 |  | 1.43 | 1.69 | 1.08 | 1.78 | 2.01 | 2.51 | 1.17
16 | Cc1nc(C)c(N2CCNCC2)c(=O)[nH]1 | > 100 | > 100 | > 100 | > 100 | > 100 | > 100 | > 100 |  | > 100 | > 100 |  |  |  |  |  |  | 
17 | NC1=NS(=O)(=O)Nc2nc(-c3ccccc3)[nH]c21 |  |  | > 100 | > 100 | > 100 | > 100 | > 100 | > 100 | > 100 |  |  |  |  |  |  |  | 
18 | COc1ccc2c3c([nH]c2c1)CCN(CCCC(=O)c1ccc(F)cc1)C3 |  | 31.8 | 25.8 | 36.4 | 29.1 | 37.3 | 34.1 | 32 | 24.8 | 35.1 |  |  |  |  |  |  | 
19 | CC(C)=CCc1[nH]c2ccccc2c1C1=C(O)C(=O)C(c2c(CC=C(C)C)[nH]c3ccccc23)=C(O)C1=O | 1.59 | 6.26 | 7.59 | 3.87 | 7.78 |  | 7.11 | 3.95 | 4.14 | 11.5 |  |  |  |  |  |  | 
20 | COC(=O)N[C@H](C(=O)O)C(C)O[Si](C)(C)C(C)(C)C (stereo partly drawn) | > 100 |  | > 100 | > 100 | > 100 | > 100 | > 100 |  |  |  |  |  |  |  |  |  | 
21 | Cc1cccc(N2C(=O)C3c4[nH]c5ccccc5c4C4CCC(C(C)(C)C)CC4C3C2=O)c1 (stereo not drawn) | 33.5 | 26.1 | 31.4 | 19 | 13.3 | 25.8 | 13.7 | 34.4 |  | 30.7 |  |  |  |  |  |  | 
22 | CCOC(=O)C(Cc1ccc(OC(=O)OC(C)(C)C)cc1)NC(=O)OC(C)(C)C (stereo not drawn) | > 100 | > 100 | > 100 | > 100 | > 100 |  | > 100 | > 100 | 62.6 | > 100 |  |  |  |  |  |  | 
23 | CC(=O)NC(C)(C)C1CCC(C)=C(c2ccccc2)C1 (stereo not drawn) | > 100 |  | > 100 | > 100 | > 100 |  | > 100 |  | > 100 | > 100 |  |  |  |  |  |  | 
24 | CC(C)=CCC/C(C)=C/COc1c2ccoc2cc2oc(=O)ccc12 | > 100 | > 100 | 72 | > 100 | > 100 | 42.1 | > 100 | 38.3 |  | > 100 |  |  |  |  |  |  | 
25 | O=[N+]([O-])C(/C=N/Nc1ccccc1)/C=N/Nc1ccccc1 |  | > 100 | > 100 | > 100 | > 100 |  | > 100 | > 100 | > 100 |  |  |  |  |  |  |  | 
